Assay results from US20050130134A1, “Means and methods for monitoring non-nucleoside reverse transcriptase inhibitor antiretroviral therapy and guiding therapeutic decisions in the treatment HIV-AIDS” (ViroLogic, Inc., priority 2000, published 2005).
Values joined by “and” are separate entries in the source; they are usually repeats but may differ in a detail not shown here. Identical values can stand only once. “Also recorded” adds a separate entry of the source.

How the values were obtained:
[1] = test system: RTV-B clone 1 (RT A98G, G190S); experiment: Phenotypic susceptibility assay, RTV-B clone 1 (patient B); type: cell-based, HIV-1; conditions: >1 loss, <1 increased susceptibility
Procedure: (§1) Resistance tests were carried out with resistance test vectors using two host cell types. Resistance test vector viral particles were produced by a first host cell (the resistance test vector host cell) that was prepared by transfecting a packaging host cell with the resistance test vector and the packaging expression vector. The resistance test vector viral particles were then used to infect a second host cell (the target host cell) in which the expression of the indicator gene is measured.
(§2) The resistance test vectors containing a functional luciferase gene cassette were constructed and host cells were transfected with the resistance test vector DNA. The resistant test vectors contained patient-derived reverse transcriptase and protease sequences that were either susceptible or resistant to the antiretroviral agents, such as nucleoside reverse transcriptase inhibitors, non-nucleoside reverse transcriptase inhibitors and protease inhibitors. The resistance test vector viral particles produced by transfecting the resistance test vector DNA into host cells, either in the presence or absence of protease inhibitors, were used to infect target host cells grown either in the absence of NRTI or NNRTI or in the presence of increasing concentrations of the drug. […] The IC50 values were determined by plotting percent drug inhibition vs. log10 drug concentration.
(§3) Host cells were seeded in 10-cm-diameter dishes and were transfected several days after plating with resistance test vector plasmid DNA and the envelope expression vector. […] HIV capsid protein (p24) levels in the harvested cell culture media were determined by an EIA method as described by the manufacturer (SIAC; Frederick, Md.). […] The inhibitory effect of the drug was determined using the following equation: % luciferase inhibition=1-(RLUluc[drug]÷RLUluc)×100 where RLUluc [drug] is the relative light unit of luciferase activity in infected cells in the presence of drug and RLUluc is the Relative Light Unit of luciferase activity in infected cells in the absence of drug. […]

[2] = test system: RTV-1033 patient virus (RT V106A, V189L, F227L); experiment: Phenotypic susceptibility assay, RTV-1033 (patient 98-1033); type: cell-based, HIV-1
Procedure: (§4) Transfections were performed using a calcium-phosphate precipitation procedure. […] Cell lysates were assayed for luciferase activity (FIG. 3). […] The drug inhibition curves are shown in (FIG. 3).

[3] = test system: HIV-1 reverse transcriptase P225H (P225H-RTV); experiment: Phenotypic susceptibility assay, site directed mutant P225H-RTV; type: cell-based; conditions: P225H alone versus wild type control RTV
Procedure: as §4
Resistance test vectors were constructed containing the P225H mutation alone and in combination with other known drug resistance mutations (K103N, Y181C) known to modulate the HIV susceptibility to NNRTIs. […] (Sakar G and Sommar S S (1994) Biotechniques 8(4), 404-407). […] The P225H mutation was also introduced into a RTV containing additional mutations at K103N, Y181C or both (K103N+Y181C).

[4] = test system: HIV-1 reverse transcriptase P236L plus K103N, Y181C or both; experiment: Phenotypic susceptibility assay, P236L with K103N, Y181C or K103N+Y181C; type: cell-based; conditions: P236L added to K103N, Y181C or K103N+Y181C versus corresponding RTV lacking P236L
Procedure: as §4
Resistance test vectors were constructed containing the P236L mutation alone and in combination with other known drug resistance mutations (K103N, Y181C) that are known to modulate the susceptibility of HIV-1 to NNRTIs. […] The P236L mutation was also introduced into a RTV containing mutations at K103N, Y181C or both (K103N+Y181C).

[5] = test system: HIV-1 reverse transcriptase G190A (G190A-RTV); experiment: Phenotypic susceptibility assay, site directed mutant G190A-RTV; type: cell-based; conditions: for change in susceptibility: G190A-RTV versus wild type reference RTV
Procedure: as §1
The resistance test vectors containing a functional luciferase gene cassette were constructed and host cells were transfected with the resistance test vector DNA. The resistant test vectors contained patient-derived reverse transcriptase and protease sequences that were either susceptible or resistant to the antiretroviral agents, such as nucleoside reverse transcriptase inhibitors, non-nucleoside reverse transcriptase inhibitors and protease inhibitors. The resistance test vector viral particles produced by transfecting the resistance test vector DNA into host cells, either in the presence or absence of protease inhibitors, were used to infect target host cells grown either in the absence of NRTI or NNRTI or in the presence of increasing concentrations of the drug. The amount of luciferase activity produced in infected target host cells in the presence of drug was compared to the amount of luciferase produced in infected target host cells in the absence of drug. Drug resistance was measured as the amount of drug required to inhibit by 50% the luciferase activity detected in the absence of drug (inhibitory concentration 50%, IC50). The IC50 values were determined by plotting percent drug inhibition vs. log10 drug concentration.
as §3, with “vector. Transfections were performed using a calcium-phosphate precipitation procedure. The cell culture media containing the DNA precipitate was replaced with fresh medium, from one to 24 hours, after transfection.” for “vector.”

[6] = test system: HIV-1 reverse transcriptase Y188L (Y188L-RTV); experiment: Phenotypic susceptibility assay, site directed mutant Y188L-RTV; type: cell-based; conditions: >1 loss of susceptibility
Procedure: as §1, §2, §3

[7] = test system: HIV-1 reverse transcriptase Y188C (Y188C-RTV); experiment: Phenotypic susceptibility assay, site directed mutant Y188C-RTV; type: cell-based; conditions: >1 loss of susceptibility
Procedure: as §1, §2, §3

[8] = test system: HIV-1 reverse transcriptase E138A (E138A-RTV); experiment: Phenotypic susceptibility assay, site directed mutant E138A-RTV; type: cell-based; conditions: >1 loss of susceptibility
Procedure: as §1, §2, §3

[9] = test system: HIV-1 reverse transcriptase A98G (A98G-RTV); experiment: Phenotypic susceptibility assay, site directed mutant A98G-RTV; type: cell-based; conditions: >1 loss of susceptibility
Procedure: as §1, §2, §3

[10] = test system: HIV-1 reverse transcriptase Y181C (Y181C-RTV); experiment: Phenotypic susceptibility assay, site directed mutant Y181C-RTV; type: cell-based; conditions: for resistance profile: Y181C site directed mutant, FIG. 5
Procedure: as §1, §2, §3

[11] = test system: HIV-1 reverse transcriptase V108I (V108I-RTV); experiment: Phenotypic susceptibility assay, site directed mutant V108I-RTV; type: cell-based; conditions: >1 loss of susceptibility
Procedure: as §1, §2, §3

[12] = test system: HIV-1 reverse transcriptase K103N + G190A (K103N-G190A-RTV); experiment: Phenotypic susceptibility assay, site directed mutant K103N-G190A-RTV; type: cell-based; conditions: K103N-G190-RTV (K103N + G190A); >1 loss of susceptibility
Procedure: as §1, §2, §3

[13] = test system: HIV-1 reverse transcriptase V106A (V106A-RTV); experiment: Phenotypic susceptibility assay, site directed mutant V106A-RTV; type: cell-based; conditions: >1 loss of susceptibility
Procedure: as §1, §2, §3

[14] = test system: HIV-1 reverse transcriptase V189L (V189L-RTV); experiment: Phenotypic susceptibility assay, site directed mutant V189L-RTV; type: cell-based; conditions: >1 loss of susceptibility
Procedure: as §1, §2, §3

[15] = test system: HIV-1 reverse transcriptase V106A + F227L (V106A-F227-RTV); experiment: Phenotypic susceptibility assay, site directed mutant V106A-F227-RTV; type: cell-based; conditions: >1 loss of susceptibility
Procedure: as §1, §2, §3

[16] = test system: HIV-1 reverse transcriptase V106A + Y181C + F227L (V106A-Y181C-F227L-RTV); experiment: Phenotypic susceptibility assay, site directed mutant V106A-Y181C-F227L-RTV; type: cell-based; conditions: >1 loss of susceptibility
Procedure: as §1, §2, §3

SMILES	fold change in susceptibility [1]	decrease in susceptibility [2]	change in susceptibility [3]	change in susceptibility [4]	change in susceptibility [5]	change in susceptibility ([5]; listed as delviridine)	fold change in susceptibility compared to wild type control RTV [6]	fold change in susceptibility compared to wild type control RTV [7]	fold change in susceptibility compared to wild type control RTV [8]	fold change in susceptibility compared to wild type control RTV [9]	resistance profile [10]	fold change in susceptibility compared to wild type control RTV [11]	fold change in susceptibility compared to wild type control RTV [12]	fold change in susceptibility compared to wild type control RTV [13]	fold change in susceptibility compared to wild type control RTV [14]	fold change in susceptibility compared to wild type control RTV [15]	fold change in susceptibility compared to wild type control RTV [16]	fold change in susceptibility compared to wild type control RTV ([5]; G190A-RTV)	fold change in susceptibility compared to wild type control RTV ([10]; Y181C-RTV, >1 loss of susceptibility)
CC(C)Nc1cccnc1N1CCN(C(=O)c2cc3cc(NS(C)(=O)=O)ccc3[nH]2)CC1 [delavirdine]	0.55 fold	30 fold	more susceptible; also recorded: increase; also recorded: increases susceptibility	less susceptible (more resistant); also recorded: additional reduction; also recorded: severe resistance	slightly more susceptible; also recorded: increase; also recorded: slightly increase susceptibility	increased susceptibility	9 fold	3 fold	1.6 fold	3 fold	resistance	1.3 fold	40 fold	5 fold	1.8 fold	3 fold	50 fold		
O=C1Nc2ccc(Cl)cc2[C@@](C#CC2CC2)(C(F)(F)F)O1 [efavirenz]	250 fold	200 fold	little or no change	restores a significant portion of the loss of susceptibility			109 fold and 110 fold	20 fold	1.4 fold	3 fold		1.7 fold	215 fold	1.7 fold	1.3 fold	8 fold	12 fold	8 fold	3 fold and 4 fold
Cc1ccnc2c1NC(=O)c1cccnc1N2C1CC1 [nevirapine]	640 fold	greater than 800 fold	No significant change; also recorded: little or no change	did not significantly alter; also recorded: little or no additional reduction; also recorded: no effect	markedly less susceptible; also recorded: decrease; also recorded: greatly reduce susceptibility		greater than 800 fold	30 fold	1.3 fold	8 fold	resistance	3 fold	greater than 800 fold	60 fold	1.3 fold	greater than 800 fold	greater than 800 fold		
